Literature values in US4127539A, “Novel hexacosapeptides, intermediates therefore and pharmaceutical compositions and methods employing said hexacosapeptides” (priority 1977, dated 1978).

Key:
[1] = test system: partially purified brain opiate receptor sites; settings: literature, background section
[2] = literature, background section
rat = settings: injected directly into the brain of the rat

For “H-Tyr-Gly-Gly-Phe-Met-OH [methionine enkephalin]”, the “binding to partially purified brain opiate receptor sites” value [1] is listed as “binds stereo-specifically”, the “activity in bioassays for opiate activity” value [2] is listed as “very active” and the analgesic effect (rat) is listed as “only weak analgesic agent of short duration”.
